Results taken from patent US9670217B2, “Process for preparing chlorins and their pharmaceutical uses” (UNIVERSIDADE DE COIMBRA, priority 2008, dated 2017).
Where two headings read alike, the source gives them in different places. Blank lines part the entries; values can stand above or below the compound they belong to.

Key:
[1] = in toluene [12]; cited from earlier work
[2] = cited from earlier work
[3] = Photobleaching under 748 nm diode laser irradiation; type: physicochemical; details: 100 mW laser irradiation at 748 nm
Description: The irradiation of bacteriochlorins in the photobleaching experiments employed the 748 nm Lynx diode laser. For animal studies we employed a costumer-made Hamamatsu diode laser, type LA0873. S/N M070301, which delivered 140 mW at 748 nm. This diode laser was controlled by a ThorLabs 500 mA ACC/APC Laser Diode Controller and in-house electronics. The laser energies of this and the other higher-energy lasers employed in this work were regularly checked with an Ophir model AN/2E laser power meter.
Photobleaching experiments were conducted in PBS. PBS:methanol (50:50) and methanol solutions. The solutions were irradiated in a cuvette with an optical path of 1 cm and the Lynx diode laser. The initial absorption of the solutions was ca. 0.8. The mechanism of photobleaching was assessed with the irradiation of the sensitizer using the Hamamatsu diode laser at 80 mW. The sensitizer was irradiated in PBS and in the presence of ascorbic acid or azide.
The chemical stability of the compounds was studied exposing them to light, air, and pH changes. The most significant degradation occurs for aerated solutions irradiated by light of the appropriate wavelength. In such circumstances the photobleaching of the compounds follows a first-order rate and is proportional to the energy of the incident laser light. In general, it was also observed that the photobleaching rate increases with the amount of water present in the solution. Bennett reported the photoconversion of Foscan® (m-THPC) and of the analogous bacteriochlorin (m-THPB) in PBS:methanol (50:50). Scherz reported the photoconversion of Tookad® in acetone and Triton-X:PBS [3]. For the purpose of comparing the photostability of Luzitins with that of Foscan® and Tookad®, we present in Table 2 the half-lives (t1/2) of representative drugs described herein, together with those of Foscan and Tookad® normalized for a laser power of 100 mW.
Luzitin-FMet was dissolved in PBS:methanol (2:3), transferred to a 1 cm quartz cell and its absorption spectrum was registered, FIG. 6. The quartz cell was then placed in the beam of the 748 nm Lynx diode laser, previously unfocused to have a beam diameter coincident with the window of the quartz cell. The laser power measured under these conditions was 28.8 mW. Every 5 minutes the irradiation was interrupted and a new absorption spectrum was registered. This procedure was followed for 65 minutes. The photobleaching follows the kinetics of a first-order reaction in the time window of the experiment. […] Whereas the bacteriochlorin peak at 743 nm is reduced from an absorbance of 1.128 to 0.337, the absorption of the chlorin only increases from 0.114 to 0.151. Taking into consideration the molar absorption coefficients of the compounds at these wavelengths, it is clear that whereas 70% of the bacteriochlorin is destroyed during the irradiation, only a few percent of chlorin are formed.
The half-lives of other bacteriochlorins normalized 100 mW laser irradiation at 748 nm are presented in […], together with the literature data for the photodegradation of Foscan® and Tookad® normalized for the same light intensity. It was also observed that the half-live to Luzitin-Cl is increased by a factor of 30 when the PBS solution of the photosensitizer is saturated with Argon, which reduces the oxygen concentration in the solution.

[4] = n-octanol:water partition coefficient (shake-flask); type: physicochemical
Protocol: The n-octanol:water partition coefficients (CP) were measured using a minor modification of the shake-flask method described by some of us in the literature. The modification concerned the excitation of the absorption band ca 500 nm and the collection of the fluorescence in the red/IR region.

[5] = Triplet lifetime by laser flash photolysis; type: physicochemical; details: air-saturated ethanol
Protocol: (§1) Absorption spectra were recorded on a Shimadzu UV-2100 spectrophotometer or with a Carry 50 Biospectrophotometer (Varian, Mulgrave, USA). Fluorescence spectra were measured with a Spex Fluorolog 3 spectrophotometer, with correction for the wavelength dependence system (RCA C31034 photomultiplier), or with a PerkinElmer LS 50 spectrofluorimeter. Transient absorption spectra were measured with an Applied Photophysics LKS 60 nanosecond laser flash photolysis kinetic spectrometer, using the third harmonic of a Spectra-Physics Quanta Ray GCR 130-01 Nd/YAG laser for excitation, a Hamamatsu 1P28 photomultiplier and a Hewlett-Packard Infinium oscilloscope (1 GS/s). Flash photolysis measurements were made in the presence of air and in argon saturated solutions. Photoacoustic calorimetry employed the same Nd/YAG laser, a home-made front-face photoacoustic cell with a 2.25 MHz Panametrics transducer (model 5676) and a Tektronix DSA 601 transient recorder. Room-temperature singlet-oxygen phosphorescence was measured at 1270 nm with a Hamamatsu R5509-42 photomultiplier, cooled to 193 K in a liquid nitrogen chamber (Products for Research model PC176TSCE005), following laser excitation of aerated solutions at 355 nm, using an adapted Applied Photophysics spectrometer. Singlet oxygen emission at 1270 nm was also monitored with a liquid nitrogen-cooled germanium detector (North Coast) coupled to a Tectronix Digitizing scope (TDS 520B), following sample excitation with 5 ns laser pulses of the third harmonic (355 nm) generated by a Q-switched Nd:YAG laser (Continuum Surelite II).
The triplet-triplet absorption spectra and the triplet lifetimes of the photosensitisers (τT) were measured with the transient absorption spectra equipment described above, with excitation at 355 nm, where the solutions had absorbances between 0.25 and 0.30.
The triplet-triplet absorption spectra of the Luzitins measured in this work were in good agreement with that in the literature data for chlorins and bacteriochlorins. All triplet decays were clearly mono-exponential. […] Such values are consistent with diffusion limited energy transfer from the triplet state of the sensitizer to molecular oxygen through a charge-transfer interaction.

[6] = Fluorescence quantum yield; type: physicochemical; details: ethanol
Protocol: The absorptions of both reference and sample solutions were matched at ca 0.2 at the excitation wavelength of 515.5 nm, and the solutions were diluted by a factor 10 before collecting the fluorescence. The fluorescence quantum yield was obtained from the ratio of the fluorescence bands of the sample vs the reference, multiplied by the fluorescence quantum yield of the reference, 0.012 according to [12], after correction for the difference of refractive indexes of ethanol and toluene.
(§2) This is indicative of little aggregation between the molecules, which exist mostly as monomers at these concentrations in the solvents studied. Table 1 presents typical red and infrared molar absorption coefficients (εmax) and wavelength maxima. The same table also presents representative fluorescence quantum yields (ΦF) of Luzitins. The fluorescence quantum yields decrease of these molecules decrease in the presence of chlorine substituents, a fingerprint of the heavy atom effect expected for such molecules.

[7] = Absorption spectra (λmax, molar absorption coefficient); type: physicochemical; details: ethanol solutions
Protocol: as §1, §2

[8] = Singlet oxygen quantum yield and lifetime (1270 nm phosphorescence); type: physicochemical; details: air-saturated ethanol
Protocol: as §1
Singlet oxygen quantum yields in ethanol were obtained using a procedure described by some of us, using phenalenone as reference. The literature value for the singlet oxygen quantum yield obtained with phenalenone in ethanol is ΦΔ=0.95 [38].
All the singlet oxygen emissions measured in aerated ethanol solutions are very well described by mono-exponential decays, with typical singlet oxygen lifetimes (τΔ). The ΦΔ values of Table 1 were obtained by the procedures described above and are representative of these photosensitisers.
An air-saturated solution of Luzitin-Cl2Hep in ethanol with an absorbance ca. 0.2 at 355 nm was excited in a 1 cm quartz cuvette by a pulsed Nd:YAG laser, and the singlet oxygen emission was followed at 1270 nm, using the equipment and methods previously described. The intensity of the singlet oxygen phosphorescence was studied as a function of the laser intensity. A similar study was made with phenalenone in ethanol, at a concentration matching the absorbance of Luzitin-Cl2Hep at 355 nm. […] Various laser energies were employed and from the slopes of the energy dependence of singlet oxygen emission and the value of ΦΔ=0.95 for phenalenone in this ethanol, we obtained ΦΔ=0.78 for Luzitin-Cl2Hep.

[9] = tested on: human adenocarcinoma (HT29) cell line; details: HT29, irradiation of 25 J/cm^2 (US2003/6,569,846); read-out: dose causing 50% death rate; cited from earlier work
[10] = reference, in ethanol [38]; cited from earlier work

SMILES: Clc1cccc(Cl)c1-c1c2nc(c(-c3c(Cl)cccc3Cl)c3ccc([nH]3)c(-c3c(Cl)cccc3Cl)c3nc(c(-c4c(Cl)cccc4Cl)c4ccc1[nH]4)CC3)CC2 [Cl2PhB, 5,10,15,20-tetrakis(2,6-dichlorophenyl)bacteriochlorin]
fluorescence quantum yield of the reference [1]: 0.012

SMILES: Oc1cccc(-c2c3nc(c(-c4cccc(O)c4)c4ccc([nH]4)c(-c4cccc(O)c4)c4nc(c(-c5cccc(O)c5)c5ccc2[nH]5)CC4)C=C3)c1 [Foscan®, 5,10,15,20-tetrakis(3-hydroxyphenyl)chlorin]
t1/2 (half-life) ([2]; PBS:methanol, literature [46] normalized for a laser power of 100 mW): 8,582 sec

t1/2 (photobleaching half-life) ([3]; methanol): 164,105 sec | log KOW (n-octanol:water partition coefficient) [4]: >4 | τT (air) triplet lifetime [5]: 295 nsec | ΦF (fluorescence quantum yield) [6]: 0.0082 | εmax [7]: 75,000 M^−1 cm^−1 | λmax [7]: 746 nm | τΔ (singlet oxygen lifetime) [8]: 14.3 μsec | ΦΔ (singlet oxygen quantum yield) ([8]; phenalenone as reference): 0.63
SMILES: CCCCCCCNS(=O)(=O)c1ccc(Cl)c(-c2c3nc(c(-c4c(Cl)ccc(S(=O)(=O)NCCCCCCC)c4Cl)c4ccc([nH]4)c(-c4c(Cl)ccc(S(=O)(=O)NCCCCCCC)c4Cl)c4nc(c(-c5c(Cl)ccc(S(=O)(=O)NCCCCCCC)c5Cl)c5ccc2[nH]5)CC4)CC3)c1Cl [Luzitin-Cl2Hep, 5,10,15,20-tetrakis(2,6-dichloro-3-N-heptylsulfamoylphenyl)bacteriochlorin]

t1/2 (photobleaching half-life) ([3]; PBS): 58 s
SMILES: O=S(=O)(O)c1ccc(F)c(-c2c3nc(c(-c4cc(S(=O)(=O)O)ccc4F)c4ccc([nH]4)c(-c4cc(S(=O)(=O)O)ccc4F)c4nc(c(-c5cc(S(=O)(=O)O)ccc5F)c5ccc2[nH]5)CC4)CC3)c1 [Luzitin-F, 5,10,15,20-tetrakis(2-fluoro-5-sulfonylphenyl)bacteriochlorin]

t1/2 (photobleaching half-life) ([3]; methanol): 4,352 sec | log KOW (n-octanol:water partition coefficient) [4]: >4 | ΦF (fluorescence quantum yield) [6]: 0.0585 | λmax [7]: 742.5 nm | εmax ([7]; corrected for the chlorin content): 78,000^d) M^−1 cm^−1
SMILES: CN(C)S(=O)(=O)c1ccc(F)c(-c2c3nc(c(-c4cc(S(=O)(=O)N(C)C)ccc4F)c4ccc([nH]4)c(-c4cc(S(=O)(=O)N(C)C)ccc4F)c4nc(c(-c5cc(S(=O)(=O)N(C)C)ccc5F)c5ccc2[nH]5)CC4)CC3)c1 [Luzitin-FMet2, 5,10,15,20-tetrakis(2-fluoro-5-N,N-dimethysulfamoylphenyl)bacteriochlorin]

SMILES: CC[C@H]1c2cc3[n-]c4c(c3C)C(=O)[C@H](C(=O)OC)c4c3nc(cc4[n-]c(cc(n2)[C@@H]1C)c(C(C)=O)c4C)[C@@H](C)[C@@H]3CCC(=O)O.[Pd+2] [Tookad®]
t1/2 (half-life) ([2]; buffer): 1.56 s | IC50 [9]: 48 µM

SMILES: O=C1C=Cc2cccc3cccc1c23 [phenalenone]
ΦΔ (singlet oxygen quantum yield) [10]: 0.95
